Measured values published in the kinase profiling compilation of Christmann-Franck et al. (2016).
Each block holds one compound with its values, some of them ahead of it.

Key:
Assay in all cases: Caliper, Mobility shift assay off-chip
[1] = target: PRKD2 (human) (UniProt Q9BZL6)
[2] = target: FER (human) (UniProt P16591)
[3] = target: PRKACA (human) (UniProt P17612)
[4] = target: MAPK3 (human) (UniProt P27361)
[5] = target: PDGFRA (human) (UniProt P16234)
[6] = target: CAMK2G (human) (UniProt Q13555)
[7] = target: ABL1 (human) (UniProt P00519)
[8] = target: CAMK2B (human) (UniProt Q13554)
[9] = target: BRSK1 (human) (UniProt Q8TDC3)
[10] = target: RPS6KA2 KD1 KD2 (human) (UniProt Q15349)
[11] = target: IRAK4 (human) (UniProt Q9NWZ3)
[12] = target: MAPK11 (human) (UniProt Q15759)
[13] = target: PIM1 (human) (UniProt P11309)
[14] = target: MAPKAPK5 (human) (UniProt Q8IW41)
[15] = target: PRKCQ (human) (UniProt Q04759)
[16] = target: INSR (human) (UniProt P06213)
[17] = test system: ABL1 (human), P00519 [H396P]
[18] = target: CSNK1D (human) (UniProt P48730)
[19] = target: RPS6KB1 (human) (UniProt P23443)
[20] = target: MAPK14 (human) (UniProt Q16539)
[21] = target: RPS6KA5 KD1 KD2 (human) (UniProt O75582)
[22] = target: STK3 (human) (UniProt Q13188)
[23] = target: SYK (human) (UniProt P43405)
[24] = target: CHEK2 (human) (UniProt O96017)
[25] = target: PRKCE (human) (UniProt Q02156)
[26] = target: CAMK2D (human) (UniProt Q13557)
[27] = target: SGK1 (human) (UniProt O00141)
[28] = target: AKT2 (human) (UniProt P31751)
[29] = target: AURKC (human) (UniProt Q9UQB9)
[30] = target: MARK1 (human) (UniProt Q9P0L2)
[31] = target: PRKCB2 (human) (UniProt P05771)
[32] = target: PRKCZ (human) (UniProt Q05513)
[33] = target: MAPKAPK2 (human) (UniProt P49137)
[34] = target: AURKB (human) (UniProt Q96GD4)

Sequence of AKT2 (human) (P31751 whole entry, looked up): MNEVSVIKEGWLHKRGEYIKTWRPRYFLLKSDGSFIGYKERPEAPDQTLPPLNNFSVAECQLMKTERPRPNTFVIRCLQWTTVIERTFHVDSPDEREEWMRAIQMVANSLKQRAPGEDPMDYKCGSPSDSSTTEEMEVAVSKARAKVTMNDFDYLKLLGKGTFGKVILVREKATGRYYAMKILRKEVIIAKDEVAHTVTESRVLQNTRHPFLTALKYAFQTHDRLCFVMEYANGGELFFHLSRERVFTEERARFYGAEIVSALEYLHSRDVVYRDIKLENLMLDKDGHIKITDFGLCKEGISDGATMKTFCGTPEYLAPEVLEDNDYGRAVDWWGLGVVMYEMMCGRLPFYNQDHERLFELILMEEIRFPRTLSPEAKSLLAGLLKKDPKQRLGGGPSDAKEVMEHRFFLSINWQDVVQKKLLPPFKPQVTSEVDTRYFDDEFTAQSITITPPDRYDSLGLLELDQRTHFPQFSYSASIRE
Sequence of RPS6KB1 (human) (P23443 whole entry, looked up): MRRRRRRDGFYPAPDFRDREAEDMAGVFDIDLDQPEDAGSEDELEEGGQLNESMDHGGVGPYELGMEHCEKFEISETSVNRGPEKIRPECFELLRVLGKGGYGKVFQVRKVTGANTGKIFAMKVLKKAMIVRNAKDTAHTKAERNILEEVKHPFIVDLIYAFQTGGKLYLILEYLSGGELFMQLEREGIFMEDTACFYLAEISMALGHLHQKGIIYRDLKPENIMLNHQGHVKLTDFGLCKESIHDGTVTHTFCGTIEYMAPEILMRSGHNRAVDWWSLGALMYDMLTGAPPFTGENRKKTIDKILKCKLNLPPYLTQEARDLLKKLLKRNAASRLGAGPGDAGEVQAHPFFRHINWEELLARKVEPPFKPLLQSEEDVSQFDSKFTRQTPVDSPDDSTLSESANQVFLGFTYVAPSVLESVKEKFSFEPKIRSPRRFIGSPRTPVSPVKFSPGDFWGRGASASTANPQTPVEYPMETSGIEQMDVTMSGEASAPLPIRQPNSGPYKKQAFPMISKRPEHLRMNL
Sequence of CSNK1D (human) (P48730 whole entry, looked up): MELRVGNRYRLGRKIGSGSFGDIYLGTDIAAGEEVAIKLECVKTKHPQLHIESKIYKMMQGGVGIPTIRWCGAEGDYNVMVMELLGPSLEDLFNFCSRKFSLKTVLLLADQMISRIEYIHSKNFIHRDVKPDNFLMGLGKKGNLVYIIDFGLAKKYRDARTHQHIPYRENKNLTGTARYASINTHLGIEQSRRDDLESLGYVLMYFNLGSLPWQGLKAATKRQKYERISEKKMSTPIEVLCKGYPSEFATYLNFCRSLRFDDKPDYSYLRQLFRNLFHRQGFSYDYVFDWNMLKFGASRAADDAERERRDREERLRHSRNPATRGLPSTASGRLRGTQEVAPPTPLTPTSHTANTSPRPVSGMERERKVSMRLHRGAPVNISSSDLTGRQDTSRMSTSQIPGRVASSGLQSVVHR
Sequence of BRSK1 (human) (Q8TDC3 whole entry, looked up): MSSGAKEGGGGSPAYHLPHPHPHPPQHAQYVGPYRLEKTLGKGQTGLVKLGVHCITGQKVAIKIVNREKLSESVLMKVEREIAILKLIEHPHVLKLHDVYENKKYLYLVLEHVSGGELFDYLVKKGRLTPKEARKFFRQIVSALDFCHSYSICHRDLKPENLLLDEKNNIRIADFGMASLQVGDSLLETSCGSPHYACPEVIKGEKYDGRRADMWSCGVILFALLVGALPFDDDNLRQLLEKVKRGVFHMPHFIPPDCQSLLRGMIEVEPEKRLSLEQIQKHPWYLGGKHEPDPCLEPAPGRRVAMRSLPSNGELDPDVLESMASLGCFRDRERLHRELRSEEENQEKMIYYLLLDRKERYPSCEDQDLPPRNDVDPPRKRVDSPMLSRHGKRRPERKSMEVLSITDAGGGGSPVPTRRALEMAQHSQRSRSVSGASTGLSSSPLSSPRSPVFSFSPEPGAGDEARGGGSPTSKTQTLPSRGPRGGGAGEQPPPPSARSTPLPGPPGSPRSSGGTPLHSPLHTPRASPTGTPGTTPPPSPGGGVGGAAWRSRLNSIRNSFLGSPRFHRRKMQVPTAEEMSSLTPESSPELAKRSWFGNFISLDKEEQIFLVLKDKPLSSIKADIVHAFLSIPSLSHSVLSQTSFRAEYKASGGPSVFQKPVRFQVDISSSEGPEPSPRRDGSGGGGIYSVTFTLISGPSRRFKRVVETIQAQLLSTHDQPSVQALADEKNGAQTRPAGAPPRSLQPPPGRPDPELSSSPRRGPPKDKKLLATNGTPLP
Sequence of CHEK2 (human) (O96017 whole entry, looked up): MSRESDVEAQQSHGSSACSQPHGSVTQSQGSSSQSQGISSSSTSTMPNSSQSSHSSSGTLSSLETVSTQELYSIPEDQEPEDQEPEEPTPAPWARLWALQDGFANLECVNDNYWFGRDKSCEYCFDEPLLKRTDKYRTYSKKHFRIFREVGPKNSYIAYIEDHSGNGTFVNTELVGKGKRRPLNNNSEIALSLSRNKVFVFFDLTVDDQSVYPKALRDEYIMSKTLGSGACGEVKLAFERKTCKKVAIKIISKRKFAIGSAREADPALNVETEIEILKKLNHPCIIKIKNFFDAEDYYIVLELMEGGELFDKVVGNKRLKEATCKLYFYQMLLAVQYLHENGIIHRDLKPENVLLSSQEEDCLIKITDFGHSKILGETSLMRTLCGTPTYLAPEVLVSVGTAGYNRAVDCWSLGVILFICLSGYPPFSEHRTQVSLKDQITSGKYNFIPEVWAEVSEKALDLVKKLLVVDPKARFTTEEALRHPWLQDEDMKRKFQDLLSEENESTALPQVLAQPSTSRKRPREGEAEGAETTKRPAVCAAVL
Sequence of AURKC (human) (Q9UQB9 whole entry, looked up): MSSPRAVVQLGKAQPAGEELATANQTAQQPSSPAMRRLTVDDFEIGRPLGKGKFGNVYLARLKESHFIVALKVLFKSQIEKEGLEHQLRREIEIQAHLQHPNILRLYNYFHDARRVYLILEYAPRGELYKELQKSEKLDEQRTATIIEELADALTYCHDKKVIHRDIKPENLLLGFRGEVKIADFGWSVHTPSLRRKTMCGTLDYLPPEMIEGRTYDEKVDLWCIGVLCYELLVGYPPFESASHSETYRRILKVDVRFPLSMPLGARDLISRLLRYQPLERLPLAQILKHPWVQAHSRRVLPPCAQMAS
Sequence of PRKCZ (human) (Q05513 whole entry, looked up): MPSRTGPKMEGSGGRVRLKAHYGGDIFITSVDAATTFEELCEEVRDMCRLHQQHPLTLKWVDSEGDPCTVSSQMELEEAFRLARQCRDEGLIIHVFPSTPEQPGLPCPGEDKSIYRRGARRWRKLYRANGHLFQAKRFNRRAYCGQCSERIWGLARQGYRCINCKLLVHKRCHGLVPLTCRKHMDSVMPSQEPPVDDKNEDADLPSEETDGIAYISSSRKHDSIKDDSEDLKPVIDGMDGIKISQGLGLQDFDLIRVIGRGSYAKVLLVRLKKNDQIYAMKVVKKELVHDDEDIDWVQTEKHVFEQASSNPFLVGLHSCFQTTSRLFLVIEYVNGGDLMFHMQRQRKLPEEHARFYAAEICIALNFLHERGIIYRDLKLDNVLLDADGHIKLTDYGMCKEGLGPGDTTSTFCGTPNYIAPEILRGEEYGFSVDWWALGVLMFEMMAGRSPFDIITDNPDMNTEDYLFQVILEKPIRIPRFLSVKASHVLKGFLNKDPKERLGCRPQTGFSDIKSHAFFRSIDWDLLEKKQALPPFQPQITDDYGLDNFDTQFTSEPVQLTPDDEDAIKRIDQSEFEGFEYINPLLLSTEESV
Sequence of CAMK2B (human) (Q13554 whole entry, looked up): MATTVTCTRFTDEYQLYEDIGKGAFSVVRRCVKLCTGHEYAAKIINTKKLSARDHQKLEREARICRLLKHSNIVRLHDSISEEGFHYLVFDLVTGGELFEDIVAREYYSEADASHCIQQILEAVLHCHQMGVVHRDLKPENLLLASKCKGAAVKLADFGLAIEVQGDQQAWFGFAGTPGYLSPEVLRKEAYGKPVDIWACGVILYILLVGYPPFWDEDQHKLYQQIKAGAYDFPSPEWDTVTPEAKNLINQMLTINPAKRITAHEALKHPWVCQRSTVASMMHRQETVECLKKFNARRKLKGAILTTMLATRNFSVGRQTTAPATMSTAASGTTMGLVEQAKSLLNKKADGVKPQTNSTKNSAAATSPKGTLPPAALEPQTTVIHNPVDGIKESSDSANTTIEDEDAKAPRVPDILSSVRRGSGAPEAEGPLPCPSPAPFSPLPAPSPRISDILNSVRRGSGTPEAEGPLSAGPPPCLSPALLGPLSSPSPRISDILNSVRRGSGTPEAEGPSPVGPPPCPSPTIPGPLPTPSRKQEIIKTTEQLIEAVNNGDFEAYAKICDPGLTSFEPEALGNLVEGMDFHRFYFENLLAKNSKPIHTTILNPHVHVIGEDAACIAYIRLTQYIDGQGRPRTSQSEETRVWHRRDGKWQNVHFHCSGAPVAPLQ
Sequence of CAMK2D (human) (Q13557 whole entry, looked up): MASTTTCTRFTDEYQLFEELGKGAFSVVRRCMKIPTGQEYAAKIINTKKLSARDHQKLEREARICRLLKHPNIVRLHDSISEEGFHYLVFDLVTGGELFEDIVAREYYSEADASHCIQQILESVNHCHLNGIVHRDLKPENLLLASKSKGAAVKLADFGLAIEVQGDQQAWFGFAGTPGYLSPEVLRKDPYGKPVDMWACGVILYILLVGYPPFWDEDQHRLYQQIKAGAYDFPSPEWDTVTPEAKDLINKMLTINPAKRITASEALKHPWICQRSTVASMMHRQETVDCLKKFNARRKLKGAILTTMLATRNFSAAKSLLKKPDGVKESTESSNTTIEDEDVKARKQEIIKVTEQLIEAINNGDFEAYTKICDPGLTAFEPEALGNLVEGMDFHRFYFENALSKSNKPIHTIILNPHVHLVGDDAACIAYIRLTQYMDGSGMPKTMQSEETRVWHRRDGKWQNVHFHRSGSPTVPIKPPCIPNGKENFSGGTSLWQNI

inhibition ([1]; compound 0.1 µM): 5.7%
inhibition ([1]; compound 1.0 µM): -9.6%
inhibition ([2]; compound 0.1 µM): 24.1%
inhibition ([2]; compound 1.0 µM): -2.5%
inhibition ([3]; compound 0.1 µM): -11.5%
inhibition ([3]; compound 1.0 µM): -3.3%
inhibition ([4]; compound 0.1 µM): 0.9%
inhibition ([4]; compound 1.0 µM): -7.3%
inhibition ([5]; compound 0.1 µM): -13.5%
inhibition ([5]; compound 1.0 µM): 31.2%
inhibition ([6]; compound 1.0 µM): 0.4%
inhibition ([7]; compound 0.1 µM): 8.2%
inhibition ([7]; compound 1.0 µM): 36.3%
inhibition ([8]; compound 0.1 µM): 5.9%
inhibition ([8]; compound 1.0 µM): 12.1%
inhibition ([9]; compound 0.1 µM): 3.3%
inhibition ([9]; compound 1.0 µM): 0.5%
inhibition ([10]; compound 0.1 µM): -5.9%
inhibition ([10]; compound 1.0 µM): 9.6%
inhibition ([11]; compound 0.1 µM): 7%
inhibition ([11]; compound 1.0 µM): 16.1%
inhibition ([12]; compound 0.1 µM): -0.1%
inhibition ([12]; compound 1.0 µM): -5.4%
inhibition ([13]; compound 0.1 µM): -2.7%
inhibition ([13]; compound 1.0 µM): 2.1%
inhibition ([14]; compound 0.1 µM): 10.5%
inhibition ([14]; compound 1.0 µM): 3%
inhibition ([15]; compound 0.1 µM): -2.9%
inhibition ([15]; compound 1.0 µM): -2%
inhibition ([16]; compound 0.1 µM): 3.4%
inhibition ([16]; compound 1.0 µM): -0.3%
inhibition ([17]; compound 0.1 µM): -1.8%
inhibition ([17]; compound 1.0 µM): 42.1%
inhibition ([18]; compound 0.1 µM): 3.5%
inhibition ([18]; compound 1.0 µM): 8.9%
inhibition ([19]; compound 0.1 µM): -1%
inhibition ([19]; compound 1.0 µM): -6.2%
inhibition ([20]; compound 0.1 µM): -4.5%
inhibition ([20]; compound 1.0 µM): 1.9%
inhibition ([21]; compound 0.1 µM): -3.5%
inhibition ([21]; compound 1.0 µM): 8.1%
inhibition ([22]; compound 0.1 µM): -6%
inhibition ([22]; compound 1.0 µM): 7.6%
inhibition ([23]; compound 0.1 µM): 8.7%
inhibition ([23]; compound 1.0 µM): 15.8%
inhibition ([24]; compound 0.1 µM): -1.5%
inhibition ([24]; compound 1.0 µM): 6.9%
inhibition ([25]; compound 0.1 µM): 8.8%
inhibition ([25]; compound 1.0 µM): 3.9%
inhibition ([26]; compound 1.0 µM): -1.3%
inhibition ([27]; compound 0.1 µM): -0.4%
inhibition ([27]; compound 1.0 µM): 6.4%
inhibition ([28]; compound 0.1 µM): -4.1%
inhibition ([28]; compound 1.0 µM): -15.8%
inhibition ([29]; compound 0.1 µM): 31.7%
inhibition ([29]; compound 1.0 µM): 75.8%
inhibition ([30]; compound 0.1 µM): 6.6%
inhibition ([30]; compound 1.0 µM): 16.4%
inhibition ([31]; compound 0.1 µM): 2.8%
inhibition ([31]; compound 1.0 µM): 8.1%
inhibition ([32]; compound 0.1 µM): 1.7%
inhibition ([32]; compound 1.0 µM): 3.7%
inhibition ([33]; compound 0.1 µM): -0.4%
inhibition ([33]; compound 1.0 µM): 2.9%
inhibition ([34]; compound 0.1 µM): 37.1%
inhibition ([34]; compound 1.0 µM): 80.7%
Structure (SMILES): CN(c1ccc2ccc3ncc(-c4cnn(C)c4)cc3c(=O)c2c1)S(=O)(=O)NCc1ccccn1

inhibition ([1]; compound 0.1 µM): 7.5%
inhibition ([1]; compound 1.0 µM): 0%
inhibition ([2]; compound 0.1 µM): -14.2%
inhibition ([2]; compound 1.0 µM): 0.5%
inhibition ([3]; compound 0.1 µM): 2.5%
inhibition ([3]; compound 1.0 µM): 4.8%
inhibition ([4]; compound 0.1 µM): 1.7%
inhibition ([4]; compound 1.0 µM): -0.5%
inhibition ([5]; compound 0.1 µM): 1.5%
inhibition ([5]; compound 1.0 µM): 3.9%
inhibition ([6]; compound 0.1 µM): -3.5%
inhibition ([6]; compound 1.0 µM): -2.8%
inhibition ([7]; compound 0.1 µM): -1%
inhibition ([7]; compound 1.0 µM): 1.6%
inhibition ([8]; compound 0.1 µM): -1.6%
inhibition ([8]; compound 1.0 µM): 0.8%
inhibition ([9]; compound 0.1 µM): -1.6%
inhibition ([9]; compound 1.0 µM): 1.6%
inhibition ([10]; compound 0.1 µM): -4.2%
inhibition ([10]; compound 1.0 µM): -2.5%
inhibition ([11]; compound 0.1 µM): -10.2%
inhibition ([11]; compound 1.0 µM): 0.3%
inhibition ([12]; compound 0.1 µM): 0.6%
inhibition ([12]; compound 1.0 µM): -1%
inhibition ([13]; compound 0.1 µM): -2.4%
inhibition ([13]; compound 1.0 µM): -4.4%
inhibition ([14]; compound 0.1 µM): -4.3%
inhibition ([14]; compound 1.0 µM): 2.9%
inhibition ([15]; compound 0.1 µM): 3.3%
inhibition ([15]; compound 1.0 µM): 0.5%
inhibition ([16]; compound 0.1 µM): 5.1%
inhibition ([16]; compound 1.0 µM): 3.5%
inhibition ([17]; compound 0.1 µM): 1.4%
inhibition ([17]; compound 1.0 µM): 1.1%
inhibition ([18]; compound 0.1 µM): -7.1%
inhibition ([18]; compound 1.0 µM): -2.9%
inhibition ([19]; compound 0.1 µM): 10.9%
inhibition ([19]; compound 1.0 µM): -3.3%
inhibition ([20]; compound 0.1 µM): -10.6%
inhibition ([20]; compound 1.0 µM): 5.1%
inhibition ([21]; compound 0.1 µM): -5.3%
inhibition ([21]; compound 1.0 µM): -0.9%
inhibition ([22]; compound 0.1 µM): 1.9%
inhibition ([22]; compound 1.0 µM): 4.5%
inhibition ([23]; compound 0.1 µM): -0.6%
inhibition ([23]; compound 1.0 µM): -0.5%
inhibition ([24]; compound 0.1 µM): 4.2%
inhibition ([24]; compound 1.0 µM): 1.2%
inhibition ([25]; compound 0.1 µM): 9.3%
inhibition ([25]; compound 1.0 µM): -0.4%
inhibition ([26]; compound 0.1 µM): -22.5%
inhibition ([26]; compound 1.0 µM): -4.6%
inhibition ([27]; compound 0.1 µM): -2.2%
inhibition ([27]; compound 1.0 µM): -6%
inhibition ([28]; compound 0.1 µM): -1.5%
inhibition ([28]; compound 1.0 µM): 3.1%
inhibition ([29]; compound 0.1 µM): 7.5%
inhibition ([29]; compound 1.0 µM): 18.6%
inhibition ([30]; compound 0.1 µM): -5.4%
inhibition ([30]; compound 1.0 µM): -1.3%
inhibition ([31]; compound 0.1 µM): 3.3%
inhibition ([31]; compound 1.0 µM): -13.3%
inhibition ([32]; compound 0.1 µM): 0.7%
inhibition ([32]; compound 1.0 µM): 1.2%
inhibition ([33]; compound 0.1 µM): -1.1%
inhibition ([33]; compound 1.0 µM): 0.8%
inhibition ([34]; compound 0.1 µM): 8%
inhibition ([34]; compound 1.0 µM): 27.6%
Structure (SMILES): O=C(CCc1ccc2ccc3ncc(C4CCNCC4)cc3c(=O)c2c1)NCc1ccccn1

inhibition ([1]; compound 0.01 µM): 1.6%
inhibition ([1]; compound 0.1 µM): -3.6%
inhibition ([2]; compound 0.01 µM): -1%
inhibition ([2]; compound 0.1 µM): 0.2%
inhibition ([3]; compound 0.01 µM): 2.8%
inhibition ([3]; compound 0.1 µM): -0.1%
inhibition ([5]; compound 0.01 µM): 0.2%
inhibition ([5]; compound 0.1 µM): 9%
inhibition ([6]; compound 0.01 µM): 13.5%
inhibition ([6]; compound 0.1 µM): -2.8%
inhibition ([7]; compound 0.01 µM): 3.8%
inhibition ([7]; compound 0.1 µM): 3.4%
inhibition ([8]; compound 0.01 µM): 4.4%
inhibition ([8]; compound 0.1 µM): -5.2%
inhibition ([9]; compound 0.01 µM): -2.1%
inhibition ([9]; compound 0.1 µM): -1.6%
inhibition ([10]; compound 0.01 µM): 6.7%
inhibition ([10]; compound 0.1 µM): 10.4%
inhibition ([11]; compound 0.01 µM): -10%
inhibition ([11]; compound 0.1 µM): 6.7%
inhibition ([12]; compound 0.01 µM): -7.7%
inhibition ([12]; compound 0.1 µM): 4.9%
inhibition ([13]; compound 0.01 µM): -11.4%
inhibition ([13]; compound 0.1 µM): -4.6%
inhibition ([14]; compound 0.01 µM): -2.5%
inhibition ([14]; compound 0.1 µM): 6.9%
inhibition ([15]; compound 0.01 µM): -6.4%
inhibition ([15]; compound 0.1 µM): -1.3%
inhibition ([16]; compound 0.01 µM): 3.1%
inhibition ([16]; compound 0.1 µM): 3.1%
inhibition ([17]; compound 0.01 µM): 2.2%
inhibition ([17]; compound 0.1 µM): 0.5%
inhibition ([18]; compound 0.01 µM): -3.5%
inhibition ([18]; compound 0.1 µM): 8.9%
inhibition ([19]; compound 0.01 µM): 8%
inhibition ([19]; compound 0.1 µM): 4.2%
inhibition ([20]; compound 0.01 µM): -1.7%
inhibition ([20]; compound 0.1 µM): -2.6%
inhibition ([21]; compound 0.01 µM): 3.4%
inhibition ([21]; compound 0.1 µM): -4.2%
inhibition ([22]; compound 0.01 µM): 7.9%
inhibition ([22]; compound 0.1 µM): 17.7%
inhibition ([23]; compound 0.01 µM): 1.3%
inhibition ([23]; compound 0.1 µM): -4.4%
inhibition ([24]; compound 0.01 µM): -2.6%
inhibition ([24]; compound 0.1 µM): -7.4%
inhibition ([25]; compound 0.01 µM): -0.5%
inhibition ([25]; compound 0.1 µM): 3.8%
inhibition ([26]; compound 0.01 µM): 2.4%
inhibition ([26]; compound 0.1 µM): -6.5%
inhibition ([27]; compound 0.01 µM): 2.1%
inhibition ([27]; compound 0.1 µM): 9.1%
inhibition ([28]; compound 0.01 µM): -1.3%
inhibition ([28]; compound 0.1 µM): 2%
inhibition ([29]; compound 0.01 µM): -1.6%
inhibition ([29]; compound 0.1 µM): 15.4%
inhibition ([30]; compound 0.01 µM): 0.6%
inhibition ([30]; compound 0.1 µM): 5.5%
inhibition ([31]; compound 0.01 µM): 1.4%
inhibition ([31]; compound 0.1 µM): 5.7%
inhibition ([32]; compound 0.01 µM): 1.8%
inhibition ([32]; compound 0.1 µM): 3.6%
inhibition ([33]; compound 0.01 µM): -0.8%
inhibition ([33]; compound 0.1 µM): -0.9%
inhibition ([34]; compound 0.01 µM): -0.1%
inhibition ([34]; compound 0.1 µM): 11.7%
Structure (SMILES): Cn1cc(-c2cnc3ccc4ccc(CS(=O)(=O)NC5CCCCC5)cc4c(=O)c3c2)cn1
